PubChem BioAssay (NCI)
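Where inhibition never reached the appropriate level, the endpoint shown equals the highest concentration tested. Otherwise, values were interpolated linearly from a five-concentration, 48-hour dose response in 96-well plates. At the TGI there is no net growth.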

What was measured:
Experiment in all cases: NCI tumour cell line growth inhibition, 48 h
HT29 colon = system: HT29 colon
M14 melanoma = system: M14 melanoma
MOLT-4 leukemia = system: MOLT-4 leukemia
SK-OV-3 ovarian = system: SK-OV-3 ovarian
CAKI-1 renal = system: CAKI-1 renal
HCC-2998 colon = system: HCC-2998 colon
A549 NSCLC = system: A549 NSCLC
KM20L2 colon = system: KM20L2 colon
MALME-3M melanoma = system: MALME-3M melanoma
HCT-15 colon = system: HCT-15 colon
RPMI-8226 leukemia = system: RPMI-8226 leukemia
XF 498 CNS = system: XF 498 CNS
SNB-78 CNS = system: SNB-78 CNS
LOX IMVI melanoma = system: LOX IMVI melanoma
SF-268 CNS = system: SF-268 CNS
HOP-18 NSCLC = system: HOP-18 NSCLC
DMS 273 small cell lung = system: DMS 273 small cell lung
HOP-62 NSCLC = system: HOP-62 NSCLC
RXF-631 renal = system: RXF-631 renal
SW-620 colon = system: SW-620 colon
U251 CNS = system: U251 CNS
HCT-116 colon = system: HCT-116 colon
LXFL 529 NSCLC = system: LXFL 529 NSCLC
NCI-H522 lung = system: NCI-H522 lung
HL-60(TB) leukemia = system: HL-60(TB) leukemia
OVCAR-3 ovarian = system: OVCAR-3 ovarian
NCI-H226 lung = system: NCI-H226 lung
SK-MEL-2 melanoma = system: SK-MEL-2 melanoma
NCI-H460 lung = system: NCI-H460 lung
SN12C renal = system: SN12C renal
TK-10 renal = system: TK-10 renal
SK-MEL-28 melanoma = system: SK-MEL-28 melanoma
RXF 393 renal = system: RXF 393 renal
DMS 114 small cell lung = system: DMS 114 small cell lung
SNB-19 CNS = system: SNB-19 CNS
OVCAR-5 ovarian = system: OVCAR-5 ovarian
SF-295 CNS = system: SF-295 CNS
IGROV1 ovarian = system: IGROV1 ovarian
NCI-H23 lung = system: NCI-H23 lung
CCRF-CEM leukemia = system: CCRF-CEM leukemia
OVCAR-8 ovarian = system: OVCAR-8 ovarian
SR leukemia = system: SR leukemia
HOP-92 NSCLC = system: HOP-92 NSCLC
786-0 renal = system: 786-0 renal
EKVX NSCLC = system: EKVX NSCLC
UACC-257 melanoma = system: UACC-257 melanoma
UACC-62 melanoma = system: UACC-62 melanoma
SK-MEL-5 melanoma = system: SK-MEL-5 melanoma
A498 renal = system: A498 renal
KM12 colon = system: KM12 colon
UO-31 renal = system: UO-31 renal
OVCAR-4 ovarian = system: OVCAR-4 ovarian
K-562 leukemia = system: K-562 leukemia
SF-539 CNS = system: SF-539 CNS
COLO 205 colon = system: COLO 205 colon
DLD-1 colon = system: DLD-1 colon
SNB-75 CNS = system: SNB-75 CNS
ACHN renal = system: ACHN renal
P388/ADR leukemia = system: P388/ADR leukemia
NCI/ADR-RES ovarian = system: NCI/ADR-RES ovarian
MCF7 breast = system: MCF7 breast
M19-MEL melanoma = system: M19-MEL melanoma
SN12K1 renal = system: SN12K1 renal
P388 leukemia = system: P388 leukemia

Measured: TGI

COc1ccc(CC(C)N)cc1 (centres undefined)
not listed: P388/ADR leukemia | NCI/ADR-RES ovarian | MCF7 breast | M19-MEL melanoma | SN12K1 renal | P388 leukemia
> 100 µM: all other assays above

COc1cc[n+](C)cc1
not listed: M14 melanoma | CAKI-1 renal | RXF-631 renal | LXFL 529 NSCLC | TK-10 renal | SR leukemia | 786-0 renal | A498 renal | ACHN renal
> 100 µM: all other assays above

CCCCCCCCCc1cc(=O)c2ccc(O)cc2o1
55.2 µM: CCRF-CEM leukemia
91.3 µM: TK-10 renal
81.8 µM: CAKI-1 renal
56.4 µM: SNB-75 CNS
38.2 µM: HL-60(TB) leukemia
64.6 µM: HOP-92 NSCLC
not listed: HCC-2998 colon | HCT-15 colon | A498 renal | P388/ADR leukemia | NCI/ADR-RES ovarian | MCF7 breast | SN12K1 renal | P388 leukemia
> 100 µM: all other assays above
